From a melting point compilation (Tetko et al.; mined from patent text by program, amines drawn as free bases though some values may be those of a salt)

SMILES	melting point [°C]
CCC1CC2C3CC=C4CC(OC(C)=O)CCC4(C)C3CCC2(C)C1C(C)=O (configuration not stated)	115
CCCCc1cccnc1NC=C(C#N)C(=O)OCC	98.5 to 99.5
Cc1cc2nc(Cl)c3cnc(Cl)cc3n2n1	203
CC(C)(C)OC(=O)/C=C/c1cccc(-c2nc(=O)c3ccccc3s2)n1	176 to 178
O=C(O)C1(CSc2ccc(Oc3ccc(Br)cc3)cc2)CCOCC1	143
NC(C=CP(=O)(O)O)(CO)CCc1ccc(Sc2cccc(OCc3ccccc3)c2)cc1Cl (configuration not stated)	245 to 248
FC(F)(F)c1cccc(Nc2nccc(-c3ccnc(Cl)c3)n2)c1	169 to 171
CCC1(CC)Cc2cc(OC)c(Cl)c(Cl)c2C1=O	118
O=C(NC1CC1c1ccc(-c2ncn(-c3ccc(OC(F)(F)F)cc3)n2)cc1)Oc1ccccc1 (configuration not stated)	171 to 173
COc1cc(N)c(C#N)cc1C(=O)O	237
COC(=O)C(=O)c1ccc(OC/C=C/c2ccc3ccccc3c2)cc1	100 to 102
Nc1c(Cl)cc(C(O)CNCCCCCOCCc2cc3ccccc3o2)cc1Cl (configuration not stated)	49 to 52
Nc1cc(=O)n(-c2ccccc2)[nH]1	218 to 219
CNC(=O)c1cc(C#N)cc(C)c1N	202 to 203
CCCc1c(OCCCCCCc2cc(C)c(OC)c(OC)c2C)ccc(C(=O)O)c1O	109 to 112
N#Cc1cc(F)c(-n2c(=O)cc(C(F)(F)F)[nH]c2=O)cc1Oc1cccc2c(O)cccc12	168
CC(=O)Nc1nc2ccnc(-c3cccc(NS(=O)(=O)c4ccc(C)cc4)c3)n2n1	208 to 211
Cc1cc(C)c2cccc(OCc3c(Cl)ccc(S(=O)(=O)N4CCC[C@H]4C(=O)N4CCN(C(=O)c5cccc(C(N)=NO)c5)CC4)c3Cl)c2n1	160
CS(=O)(=O)CC(=O)N[C@H]1CC[C@H](CCN2CCN(c3nccc4c3OCC4)CC2)CC1	187
N#Cc1ccc(-c2ccc(O)c(C(=O)O)c2)cc1	227
OCC1OC(n2cnc3c(NCC4(c5ccccc5)CCCCC4)ncnc32)C(O)C1O (configuration not stated)	87 to 89
Cc1nn(-c2ccccn2)c2nc3ccccc3c(N3CCOCC3)c12	203 to 205

SMILES	melting point [°C]
c1cn(CC2(CCCC3CCCC3)SCCS2)cn1	136 to 137
Cn1c(CN2C(=O)c3ccccc3C2=O)c(-c2ccc(O)cc2)c2cc(Cl)ccc2c1=O	307 to 308
CCCCCCCNCCCCCCCCSc1nc(-c2ccccc2)c(-c2ccccc2)[nH]1	87 to 89
COC(=O)CC(=O)NC(N)Cc1ccccc1 (configuration not stated)	98 to 102
COc1ccccc1Oc1c(Cl)nc(-c2cccs2)nc1Cl	118 to 120
COc1cc(N2CCC(N3CCCN(CCO)CC3)CC2)ccc1Nc1ncc2ccc(-c3ccccc3OC)n2n1	72 to 80
CCCCCCCCCCCCCCOc1ccc(CN(C(=O)NC)c2cccc(COC(=O)NC)c2)cc1	107 to 109
Cc1oc(-c2ccccc2)nc1CCOc1ccc(/C=C/C#N)cn1	116 to 117
Nc1cc(NCCC2CCCCC2)nc2c1ncn2C1OC(CO)C(O)C1O (configuration not stated)	194 to 195
CCN(C(=O)C1CC1)c1cccc(-c2ccnc3ccnn23)c1	127 to 129
CCOC(=O)Cc1nc(-c2ccc(Cl)cc2)oc1-c1ccco1	105 to 106
COC(=O)Cc1coc2cc(OCc3cc(-c4ccc(Cl)cc4)on3)ccc12	136 to 137
COc1cc(OC)nc(Oc2cccc(Oc3ccccc3)c2C(=O)O)n1	116 to 118
CCCCCCNC(=O)C1CCCN1 (configuration not stated)	61 to 64
COc1ccc(F)c(C=C2c3ccccc3CCc3ccccc32)c1	111
COc1ccccc1C(=O)NCCc1ccc(-c2ccc(OC(C)(C)C(=O)O)cc2)cc1	133
NS(=O)(=O)c1cc2cc[nH]c(=O)c2o1	290 to 291
O=C(c1ccc(Oc2ccc(S(=O)c3ccc(Oc4ccc(C(=O)C(Cl)(Cl)Cl)cc4)cc3)cc2)cc1)C(Cl)(Cl)Cl	154 to 156
CCOC(=O)C(F)(F)C(=O)[C@H](Cc1ccccc1)NC(=O)Cn1c(-c2cccc(C)c2)ncc(NC(=O)OCc2ccccc2)c1=O	138 to 140
CCOC(=O)C1=C(COCC(N)=S)NC(C)=C(C(=O)OC)C1c1ccccc1Cl (configuration not stated)	149 to 150
COCCOCCOC(=O)C#CC(=O)/C=C/c1ccc(OC)cc1	41 to 42
CCOC(=O)CC(=O)CCCn1cncn1	114 to 116

Now from value to compound:

melting point [°C]	SMILES
172 to 173	COc1cccc(C(=O)c2c(N)sc3c2CCN(Cc2ccccc2)C3)c1OC
96.5 to 97.5	Cc1ccc(C2=CCC(O)CC2)cc1 (configuration not stated)
279	NC(=O)c1cnn2cccc2c1NC1CCCCCC1
122	O=c1[nH]c2ccc(Cl)cc2n1CCCCl
90 to 96	CN(C)C(=O)c1cccc(CN2C(=O)C3(COc4cc5c(cc43)OCCO5)c3ccccc32)c1 (configuration not stated)
248 to 250	COCc1c(C=O)ncc2[nH]c3cccc(Cc4ccc(Cl)cc4)c3c12
219 to 220	CCCP(=O)(CCC)Cc1ccc(NC(=O)C2=Cc3cc(-c4ccc(C)cc4)ccc3OCC2)cc1
178 to 180	Cc1nc2c3c(ccn2c1C)[C@@H](OCC(F)(F)F)[C@H](O)[C@@H](c1ccccc1)N3
261 to 265	O=C(O)c1ccc2c(c1)S(=O)c1ccccc1CC2 (configuration not stated)
149 to 150	CN(C)CCCn1c2c(c3cc(C(=O)O)ccc31)CCCCCC2
203 to 205	NC(=O)c1c(NC(=O)C2CC2)sc2c1CCCC2=O
83 to 84	CCOC(=O)COc1ccccc1C(O)(CC)c1cccc(Cl)c1 (configuration not stated)
118 to 119	c1ccc2c(c1)-c1ccccc1C2CN1CCCCC1
181 to 184	C[C@H](NS(=O)(=O)c1ccc(-c2c(C#N)c3ccc(C4CC4)cc3n2-c2ncccn2)nc1)C(F)(F)F
290 to 292	Cc1ccc2[nH]c(-c3ccccc3)cc(=O)c2c1
323 to 325	COc1cccc(NC(=O)NCc2ccc3c(c2)C(=O)N(C2CCC(=O)NC2=O)C3=O)c1 (configuration not stated)
139 to 140	CC1=NN(c2ccc(CO)cc2)C(=O)C1
226 to 227	CC1(c2ccc(N)cc2)C(=O)Nc2cc(Cl)cc(Cl)c2C1=O (configuration not stated)
125 to 126	CC1CN(C)c2c3c(nc4cccc(c24)O1)CCCC3 (configuration not stated)
107 to 109	O=S(=O)(c1ccc(Cl)cc1)C(c1cc(F)ccc1F)C1CCCCC1 (configuration not stated)

melting point [°C]	SMILES
145 to 146	CC(O)c1onc(-c2ccccc2Cl)c1C(=O)c1nnn(Cc2cc(C(F)(F)F)cc(C(F)(F)F)c2)c1N1CCOCC1 (configuration not stated)
137 to 138	COc1ccc(-c2nc3ccc(CBr)cc3o2)cc1
109 to 111	COc1ccc(C(=O)c2c(C)n(C)c(=O)n2C)cc1
99 to 102	COc1cc(Cl)cc2c1OC(COS(=O)(=O)c1ccc(C)cc1)C2 (configuration not stated)
167 to 168	CC(C)[C@@H]1COC(=O)N1C(=O)[C@@H](CC(=O)OC(C)(C)C)Cc1ccccc1
139 to 144	Cn1cnc(Cc2cccc(CO)c2O)c1
68 to 70	CCCn1nnn(-c2cc(OC(C)C)c(CBr)cc2Cl)c1=O
213 to 216	CNC(=O)Cn1c(-c2ccc(C)s2)nc2cccnc21
288 to 289	CNC(=O)c1ccccc1Nc1nc(Nc2ccc3c(c2)OCCN(C)C3=O)ncc1Cl
204 to 206	CC(=O)NC[C@H]1CN(c2ccc(N3CCC(=C(C#N)n4ccnc4C)CC3)c(F)c2)C(=O)O1
77 to 79	CCCc1ccc2oc(CCc3ccc(OC)cc3)c(C)c2c1O
59 to 65	COC(=O)c1ccc2c(c1)CN(C(=O)OCc1ccccc1)C2
181 to 182	CC1(C)OC(=O)Nc2ccc(-c3cccc(F)c3)cc21
115 to 116	NC(=O)NC[C@@H]1CCCc2cc(Sc3cccc(F)c3)ccc21
210	O=C(NCCN1CCOCC1)Nc1nc2ccc(OCc3c(F)cccc3Cl)cc2s1
107 to 108	CCCNC(=O)Oc1ccc(C(O)(CC)c2ccc(F)cc2)cc1 (configuration not stated)
170	Nc1ccccc1-c1cccc(C(=O)O)c1
195 to 197	CN(C)C1CCc2[nH]c3ccc(CO)cc3c2C1 (configuration not stated)
87 to 88	CC(Oc1ccc(Oc2ccc(C(F)(F)F)cc2)cc1)C(=O)OCS(C)(=O)=O (configuration not stated)
124 to 125	C[C@@H](n1cnc2cc(N)c(F)cc2c1=O)[C@](O)(Cn1cncn1)c1ccc(F)cc1F

melting point [°C]	SMILES
190 to 193	O=C(Nc1ccc2[nH]c(=O)oc2c1)C(=O)N1CCC(Cc2ccccc2)CC1
119 to 121	CN1CCN(C2=Cc3cc(Cl)ccc3Oc3ccccc32)CC1
169 to 171	CN1C(=O)C(C)(C)Oc2ccc(C3=NNC(=O)CC3)cc21
171 to 173	CC(C)(C)c1ccc2c(c1)C=C(C(=O)O)C(C(F)(F)F)O2 (configuration not stated)
186 to 189	OCc1ccc(/C=C/c2ccc[nH]2)cc1
71 to 72	CN(C)CC#C[C@H]1CC[C@H](CN(C)c2ncc(Br)cn2)CC1
109 to 111	OCC1CCCn2c(cc3ccccc32)C1 (configuration not stated)
153 to 154	Cc1ccc(C2=C(C(=O)O)N(CC(C)C)Cc3ccc(OCc4ccccc4)cc32)cc1
142 to 143	N#Cc1ccc2c(c1)Sc1cc3c(cc1C=C2)CCC3
249 to 251	CSc1ccc(C(=O)C(=O)c2ccc(Cl)c(Cl)c2)cc1
86 to 88	COc1cc(C)c2c(c1)OC(C)(C)CC2=O
69 to 70	CCCCCc1c(C(C)=O)nc(C(C)C)c(CO)c1-c1ccc(F)cc1
> 250	CC(C)OC(=O)c1cc(O)cc2cc(-c3ccc(O)cc3)oc12
177 to 182	CC(O)c1c(-c2ccc(O)cc2)oc2ccc(O)cc12 (configuration not stated)
142 to 143	CC1(C)CCC(O)(CCN2C(=O)CSC2CCCc2ccc(C(=O)O)cc2)CC1 (configuration not stated)
134 to 135	COc1ccc(-c2ccc([N+](=O)[O-])cc2)cc1OC1CC2CCC1C2 (configuration not stated)
127 to 131	CNC(=O)CC(C#Cc1ccccc1)c1ccc(OC)c(OC2CCCC2)c1 (racemic)
193 to 195	COc1cc(OC)c2c(=O)[nH]c(-c3cc(C)c(OCCO)c(C)c3)cc2c1
